# How the values were obtained:
# [1] = test system: insulin receptor subunit beta (InsRb); experiment: Insulin receptor subunit beta protein level by Western blot in mHypoE-46; assay type: cell-based, mouse
# Description: mHypoE-46 cells were serum starved in 5.5 mM glucose (LG) DMEM for 1 hour prior to treatment with vehicle (0.1% DMSO), 100 µM BAP or H20, […] 5-Aminoimidazole-4-carboxamide ribonucleotide (AICAR) or 0 mM glucose DMEM. Protein was harvested using 1× cell lysis buffer (Cell Signaling Technologies, Inc, CST) containing protease and phosphatase inhibitors. A total of 30 μg protein was separated on a 12% SDS-polyacrylamide gels and transferred onto PVDF membranes. Membranes were blocked in 5% milk dissolved in Tris-buffered saline with Tween 20 (TBS-T) for 1 h and incubated with primary antibody overnight at 4° C. phospho-AMPKα (Thr172; cat. 2532S, CST), and total AMPKα (cat. 2535S, CST); phospho-p70-S6K (Thr389; cat. 9205S, CST) and total p70-S6K (cat. 9202S, CST); insulin receptor ß (cat. 3025S, CST); phospho-AKT (Ser473; cat. 9271S, CST) and total AKT (cat. 9272S, CST); phospho-ERK1/2 (Thr202/Tyr204; cat. 9101, CST) and total ERK (cat. 4695, CST) were diluted 1:1000 in 5% milk in TBS-T. Membranes were washed and incubated with secondary HRP-linked antirabbit antibody (1:7500 in 5% milk in TBS-T, CST) for 1 h, washed, and imaged using the Signal Fire ECL Reagent (CST) on the iBright 1500 Imaging System (Thermofisher). Protein density was quantified using ImageJ or the iBright Imaging System.
# The mHypoE-46 neurons were exposed to […] BAP for 16 h followed by RNA isolation. […]
# [2] = test system: mHypoE-41 cell line; experiment: Gene expression by qRT-PCR in mHypoE-41 hypothalamic cell line; assay type: cell-based, mouse; conditions: 16 hr
# Description: Hypothalamic neurons from embryonic and adult mice were previously immortalized to generate the clonal cell lines mHypoE-46, mHypoE-44, mHypoE-41, mHypoE-38, mHypoA-59, a FAC-sorted POMC/GFP mouse-derived cell line, mHypoA-POMC/GFP-2, and a mixed culture mHypoA-Bmal1-WT/F cell line (6, 13, 14). The mHypoE-46, mHypoE-44, and mHypoA-Bmal1-WT/F lines were cultured in DMEM containing 1000 mg/L glucose supplemented with 5% FBS and 1% pen/strep. The mHypoE-41, mHypoE-38, and mHypoA-59 cell lines were cultured in DMEM containing 4500 mg/L glucose supplemented with 2% FBS and 1% pen/strep. The mHypoA-POMC/GFP-2 line was cultured in DMEM containing 1000 mg/L glucose supplemented with 2% FBS and 1% pen/strep. All cells were maintained in 5% CO2 at 37° C. BAP was initially dissolved in DMSO solvent (vehicle control) to achieve 1000x the intended dose. The BAP solution was then diluted 1:1000 with the growth media used for the cell line. For co-treatment experiments, the vehicle control for ATP, UDP, and PKI was water, and for the H89 PKA inhibitor was DMSO. Neuropeptide gene expression levels were determined by qRT-PCR.
# For cell culture experiments, total RNA was isolated using PureLink RNA isolation kit (Thermofisher Scientific, Burlington, ON, Canada) according to the manufacturer's instruction with on column DNase step (PureLink DNAse kit) or DNase I treatment to remove genomic DNA. For mouse experiments, total RNA was isolated using mirVana PARIS RNA and native protein isolation kit (Thermofisher Scientific). RNA quality and quantity were measured using Nanodrop 2000 and 500-1000 ng of complimentary DNA (cDNA) was synthesized with High Capacity cDNA Reverse Transcription kit (Applied biosystems, Thermofisher Scientific). Quantitative reverse transcription polymerase chain reaction (RT-qPCR) was performed with 12.5 ng of cDNA amplified with Platinum SYBR green qPCR SuperMix-UDG with ROX on an Applied Biosystems Prism 7900HT or PowerTrack Green Master Mix on an Applied Biosystems QuantStudio 5 and gene specific primers as per manufacturer's instructions (Table 1). Data was analyzed using […] and normalized to reference gene, either 60S ribosomal protein L7 (Rpl7) or Histone 3a (His).
compound,measurement,setting,value
"c1ccc(CNc2ncnc3nc[nH]c23)cc1 [BAP, N6-benzylaminopurine]","InsR protein level in response to cellular insulin resistance, BAP relative to vehicle control","[1]; 100 μM BAP 24 h, insulin pre-treatment (100 μM, 24 h)",no change
same,basal levels of InsRb protein,"[1]; 100 μM BAP, 24 hours",significantly increased
same,Npy mRNA under co-treatment with ATP,[2]; 100 μM BAP + 100 μM ATP,unable to further induce Npy
same,Agrp mRNA expression,[2]; 100 μM BAP,increased
same,Npy mRNA expression,[2]; 100 μM BAP,increased
same,BAP dose with strongest Npy increase,"[2]; dose curve, attenuated at 500 μM",250 µM
same,"Npy expression, dose curve",[2]; increasing concentrations of BAP,increases the expression of Npy

# — patent US20260034135A1, “USE OF N6-BENZYLAMINOPURINE AS AN APPETITE SUPPRESSANT” (THE GOVERNING COUNCIL OF THE UNIVERSITY OF TORONTO, priority 2022, published 2026)
